# Results as given in the NIST ThermoML archive (doi:10.1021/je060382+).
# Several values for one entry are separate records, joined by “and”; a condition that tells them apart may be missing. Identical values can stand only once. Numbers after ± are expanded uncertainties.
# Columns and labels:
# [1] = Liquid; for viscosity: Falling or rolling sphere viscometry
# [2] = refractive index (Na D-line) (dimensionless); conditions: 293.1 K; 101.33 kPa; Liquid; Standard Abbe refractometry
structure (smiles),measurement,setting,value
CC(C)CCCCCCCOC(=O)c1ccccc1C(=O)OCCCCCCCC(C)C,mass density,"[1]; 273.15 K, 101.33 kPa",980.73 ± 0.45 kg/m3 and 980.75 ± 0.11 kg/m3
same,viscosity,"[1]; 273.15 K, 101.33 kPa",627.6 ± 56 mPa·s and 664.5 ± 60 mPa·s
same,mass density,"[1]; 278.15 K, 101.33 kPa",977.12 ± 0.12 kg/m3
same,viscosity,"[1]; 278.15 K, 101.33 kPa",393.5 ± 30 mPa·s and 410.8 ± 32 mPa·s and 410.5 ± 32 mPa·s
same,mass density,"[1]; 283.15 K, 101.33 kPa",973.48 ± 0.46 kg/m3 and 973.49 ± 0.12 kg/m3
same,viscosity,"[1]; 283.15 K, 101.33 kPa",255.2 ± 17 mPa·s and 266.8 ± 18 mPa·s
same,mass density,"[1]; 288.15 K, 101.33 kPa",969.89 ± 0.12 kg/m3
same,viscosity,"[1]; 288.15 K, 101.33 kPa",170.9 ± 9.8 mPa·s and 178.6 ± 10 mPa·s
same,mass density,"[1]; 293.1 K, 101.33 kPa, Vibrating tube method",967.6 ± 6.5 kg/m3
same,mass density,"[1]; 293.15 K, 101.33 kPa",966.37 ± 0.47 kg/m3 and 966.38 ± 0.13 kg/m3 and 966.37 ± 0.13 kg/m3
same,viscosity,"[1]; 293.15 K, 101.33 kPa",123.5 ± 6.3 mPa·s [middle of 5 runs]
same,viscosity,"[1]; 293.15 K, 19400 kPa",202.4 ± 12 mPa·s
same,viscosity,"[1]; 293.15 K, 39700 kPa",335 ± 25 mPa·s
same,viscosity,"[1]; 293.15 K, 59500 kPa",534.5 ± 45 mPa·s
same,viscosity,"[1]; 293.15 K, 103600 kPa",1435.6 ± 160 mPa·s
same,viscosity,"[1]; 293.15 K, 118200 kPa",1981.5 ± 250 mPa·s
same,viscosity,"[1]; 293.15 K, 118900 kPa",2033.8 ± 260 mPa·s
same,viscosity,"[1]; 293.15 K, 159600 kPa",4719.2 ± 720 mPa·s
same,mass density,"[1]; 298.15 K, 101.33 kPa",962.83 ± 0.47 kg/m3 and 962.84 ± 0.13 kg/m3
same,viscosity,"[1]; 298.15 K, 101.33 kPa",87.7 ± 4 mPa·s and 84.1 ± 3.8 mPa·s and 88.4 ± 4 mPa·s
same,viscosity,"[1]; 298.15 K, 25400 kPa",165.5 ± 9.3 mPa·s
same,viscosity,"[1]; 298.15 K, 50700 kPa",300.2 ± 21 mPa·s
same,viscosity,"[1]; 298.15 K, 75500 kPa",525 ± 44 mPa·s
same,viscosity,"[1]; 298.15 K, 100600 kPa",904.7 ± 89 mPa·s
same,mass density,"[1]; 303.15 K, 101.33 kPa",959.31 ± 0.48 kg/m3 and 959.29 ± 0.48 kg/m3 and 959.3 ± 0.14 kg/m3
same,viscosity,"[1]; 303.15 K, 101.33 kPa",65 ± 2.8 mPa·s [middle of 4 runs]
same,viscosity,"[1]; 308.15 K, 101.33 kPa",48.9 ± 2.1 mPa·s [middle of 4 runs]
same,viscosity,"[1]; 313.15 K, 100 kPa",37.6 ± 3.7 mPa·s and 36.8 ± 3.8 mPa·s
same,mass density,"[1]; 313.15 K, 101.33 kPa",952.2 ± 0.49 kg/m3 and 952.21 ± 0.14 kg/m3
same,viscosity,"[1]; 313.15 K, 101.33 kPa",37.5 ± 1.6 mPa·s [middle of 4 runs]
same,viscosity,"[1]; 313.15 K, 700 kPa",38.3 ± 1.8 mPa·s
same,viscosity,"[1]; 313.15 K, 25000 kPa",65.4 ± 6.3 mPa·s and 63.9 ± 5.3 mPa·s
same,viscosity,"[1]; 313.15 K, 25800 kPa",66 ± 2.9 mPa·s
same,viscosity,"[1]; 313.15 K, 50000 kPa",109.4 ± 12 mPa·s and 107 ± 12 mPa·s
same,viscosity,"[1]; 313.15 K, 50600 kPa",110.3 ± 5.4 mPa·s
same,viscosity,"[1]; 313.15 K, 75500 kPa",181 ± 10 mPa·s
same,viscosity,"[1]; 313.15 K, 100000 kPa",290 ± 47 mPa·s and 271 ± 44 mPa·s and 273 ± 44 mPa·s
same,viscosity,"[1]; 313.15 K, 100300 kPa",291.6 ± 20 mPa·s
same,viscosity,"[1]; 313.15 K, 125100 kPa",463.2 ± 37 mPa·s
same,viscosity,"[1]; 313.15 K, 150400 kPa",732.6 ± 70 mPa·s
same,viscosity,"[1]; 313.15 K, 175800 kPa",1143.6 ± 120 mPa·s
same,viscosity,"[1]; 313.15 K, 197600 kPa",1680 ± 200 mPa·s
same,viscosity,"[1]; 313.15 K, 200000 kPa",1580 ± 250 mPa·s and 1665 ± 260 mPa·s and 1530 ± 300 mPa·s
same,viscosity,"[1]; 313.15 K, 227900 kPa",2671.7 ± 360 mPa·s
same,viscosity,"[1]; 313.15 K, 252000 kPa",3750 ± 770 mPa·s and 3932.3 ± 580 mPa·s
same,viscosity,"[1]; 313.15 K, 300000 kPa",8110 ± 1700 mPa·s and 7270 ± 1600 mPa·s
same,viscosity,"[1]; 313.15 K, 400000 kPa",36300 ± 9800 mPa·s and 33700 ± 9100 mPa·s
same,viscosity,"[1]; 313.15 K, 500000 kPa",168000 ± 53000 mPa·s and 158000 ± 49000 mPa·s
same,viscosity,"[1]; 313.15 K, 600000 kPa",782000 ± 280000 mPa·s and 694000 ± 250000 mPa·s
same,viscosity,"[1]; 313.15 K, 700000 kPa",3820000 ± 1.6e+06 mPa·s and 3410000 ± 1.4e+06 mPa·s
same,viscosity,"[1]; 313.15 K, 800000 kPa",2.36e+07 ± 1.1e+07 mPa·s and 1.98e+07 ± 8.7e+06 mPa·s
same,mass density,"[1]; 323.15 K, 101.33 kPa",945.12 ± 0.5 kg/m3 and 945.13 ± 0.15 kg/m3
same,viscosity,"[1]; 323.15 K, 101.33 kPa",23 ± 1 mPa·s and 23.7 ± 1 mPa·s
same,mass density,"[1]; 333.15 K, 101.33 kPa",938.05 ± 0.51 kg/m3 and 938.07 ± 0.16 kg/m3
same,viscosity,"[1]; 333.15 K, 101.33 kPa",15.9 ± 0.7 mPa·s [middle of 4 runs]
same,viscosity,"[1]; 338.15 K, 100 kPa",13.2 ± 1.3 mPa·s and 13.08 ± 1.4 mPa·s
same,viscosity,"[1]; 338.15 K, 101.33 kPa",13.3 ± 0.6 mPa·s and 13.2 ± 0.5 mPa·s and 13 ± 0.5 mPa·s
same,viscosity,"[1]; 338.15 K, 500 kPa",13.3 ± 0.6 mPa·s
same,viscosity,"[1]; 338.15 K, 25000 kPa",20.2 ± 2.3 mPa·s
same,viscosity,"[1]; 338.15 K, 30500 kPa",22.7 ± 1 mPa·s
same,viscosity,"[1]; 338.15 K, 50000 kPa",30.7 ± 3.8 mPa·s and 31.1 ± 3.8 mPa·s
same,viscosity,"[1]; 338.15 K, 60700 kPa",37.8 ± 1.6 mPa·s
same,viscosity,"[1]; 338.15 K, 90600 kPa",60.9 ± 2.9 mPa·s
same,viscosity,"[1]; 338.15 K, 99500 kPa",70.9 ± 3.4 mPa·s
same,viscosity,"[1]; 338.15 K, 100000 kPa",67.7 ± 10 mPa·s and 69.4 ± 9.8 mPa·s
same,viscosity,"[1]; 338.15 K, 120500 kPa",96.3 ± 5 mPa·s
same,viscosity,"[1]; 338.15 K, 150100 kPa",149.6 ± 8.8 mPa·s
same,viscosity,"[1]; 338.15 K, 180400 kPa",229.2 ± 16 mPa·s
same,viscosity,"[1]; 338.15 K, 200000 kPa",291 ± 56 mPa·s and 286 ± 53 mPa·s and 299 ± 54 mPa·s
same,viscosity,"[1]; 338.15 K, 200600 kPa",307.8 ± 23 mPa·s
same,viscosity,"[1]; 338.15 K, 250700 kPa",614.9 ± 58 mPa·s
same,viscosity,"[1]; 338.15 K, 275600 kPa",856.5 ± 85 mPa·s
same,viscosity,"[1]; 338.15 K, 300000 kPa",1131 ± 260 mPa·s [middle of 4 runs]
same,viscosity,"[1]; 338.15 K, 301000 kPa",1203.7 ± 130 mPa·s
same,viscosity,"[1]; 338.15 K, 321800 kPa",1571 ± 180 mPa·s
same,viscosity,"[1]; 338.15 K, 352700 kPa",2381 ± 310 mPa·s
same,viscosity,"[1]; 338.15 K, 370500 kPa",2998.7 ± 410 mPa·s
same,viscosity,"[1]; 338.15 K, 394000 kPa",3890 mPa·s
same,viscosity,"[1]; 338.15 K, 394400 kPa",4005.5 ± 590 mPa·s
same,viscosity,"[1]; 338.15 K, 500000 kPa",14200 ± 5700 mPa·s and 13100 ± 5400 mPa·s
same,viscosity,"[1]; 338.15 K, 1000000 kPa",7420000 ± 3e+06 mPa·s and 6141000 ± 2.5e+06 mPa·s
same,mass density,"[1]; 343.15 K, 101.33 kPa",930.99 ± 0.53 kg/m3 and 931.01 ± 0.16 kg/m3
same,viscosity,"[1]; 343.15 K, 101.33 kPa",11.2 ± 0.5 mPa·s [middle of 4 runs]
same,viscosity,"[1]; 348.15 K, 101.33 kPa",9.63 ± 0.4 mPa·s and 9.65 ± 0.4 mPa·s
same,viscosity,"[1]; 348.15 K, 11100 kPa",11.7 ± 0.5 mPa·s
same,viscosity,"[1]; 348.15 K, 26500 kPa",15.1 ± 0.6 mPa·s
same,viscosity,"[1]; 348.15 K, 52600 kPa",22.9 ± 1 mPa·s
same,viscosity,"[1]; 348.15 K, 78900 kPa",33.7 ± 1.4 mPa·s
same,viscosity,"[1]; 348.15 K, 81000 kPa",35 ± 1.5 mPa·s
same,viscosity,"[1]; 348.15 K, 105700 kPa",49.67 ± 2.1 mPa·s
same,viscosity,"[1]; 348.15 K, 124200 kPa",65.18 ± 2.8 mPa·s
same,viscosity,"[1]; 348.15 K, 125700 kPa",66 ± 2.8 mPa·s
same,viscosity,"[1]; 348.15 K, 149800 kPa",92 ± 4.2 mPa·s
same,viscosity,"[1]; 348.15 K, 175700 kPa",130.3 ± 6.7 mPa·s
same,viscosity,"[1]; 348.15 K, 202300 kPa",186.52 ± 11 mPa·s
same,viscosity,"[1]; 348.15 K, 225400 kPa",250 ± 16 mPa·s
same,viscosity,"[1]; 348.15 K, 274700 kPa",467.3 ± 38 mPa·s
same,viscosity,"[1]; 348.15 K, 275700 kPa",472.3 ± 38 mPa·s
same,viscosity,"[1]; 348.15 K, 324900 kPa",866.8 ± 85 mPa·s
same,viscosity,"[1]; 348.15 K, 372500 kPa",1541.5 ± 180 mPa·s
same,mass density,"[1]; 353.15 K, 101.33 kPa",923.95 ± 0.54 kg/m3 and 923.98 ± 0.17 kg/m3 and 923.97 ± 0.17 kg/m3
same,viscosity,"[1]; 353.15 K, 101.33 kPa",8.12 ± 0.34 mPa·s and 8.35 ± 0.34 mPa·s
same,mass density,"[1]; 363.15 K, 101.33 kPa",916.91 ± 0.55 kg/m3 and 916.94 ± 0.18 kg/m3
same,viscosity,"[1]; 373.15 K, 100 kPa",4.67 ± 0.59 mPa·s and 4.7 ± 0.59 mPa·s
same,viscosity,"[1]; 373.15 K, 25000 kPa",6.73 ± 0.88 mPa·s and 6.86 ± 0.69 mPa·s
same,viscosity,"[1]; 373.15 K, 50000 kPa",9.66 ± 1.3 mPa·s and 9.77 ± 1.4 mPa·s
same,viscosity,"[1]; 373.15 K, 100000 kPa",18 ± 2.9 mPa·s and 18.5 ± 3 mPa·s
same,viscosity,"[1]; 373.15 K, 200000 kPa",56.6 ± 13 mPa·s and 57.8 ± 12 mPa·s
same,viscosity,"[1]; 373.15 K, 300000 kPa",163 ± 52 mPa·s and 166 ± 50 mPa·s and 165 ± 50 mPa·s
same,viscosity,"[1]; 373.15 K, 400000 kPa",453 ± 200 mPa·s [middle of 4 runs]
same,refractive index,[2],1.4849 ± 0.0012
